Results: patent US20040180961A1, “Compositions and preparation methods for bioavailable oral aceclofenac dosage forms” (priority 2001, published 2004)

Assay: Dissolution of aceclofenac in pure artificial gastric juice (paddle method)
Format: physicochemical
Protocol: The pharmaceutical preparation containing acelcofenac was completely dissolved in 500 ml of an ethanol solution containing phosphate buffer (pH 6.8) at a volume ratio of 50%, where a preparation further containing substances of low solubility was shaken for 10 min. The resultant solution was centrifuged at 15,000 rpm for 2 min, and then filtered with a 0.45 μm membrane filter. After properly diluting 1 ml of the filtered solution, sample was used in quantification of aceclofenac, using HPLC. In a analysis of aceclofenac, a column was C18 ODS column (4.6×150 mm, 5 μm), an absorbance was at a wave length of 282 nm, a mobile phase was a mixture of MeOH:0.02 M KH2PO4 (65:35), a flow rate was 1 ml/min. 20 μl of sample was injected. Quantification of aceclofenac was accomplished with width ratio of aceclofenac and internal standard (Ethyl paraben).
Dissolution rate of acelcofenac contained in the pharmaceutical preparation was analyzed according to the dissolution test method disclosed in a guidebook “Korea Pharmacopeia (7th revision)”. A NaCl—HCl buffer solution (pH 1.4±0.1) was used as artificial gastric juice, supplemented with Tween 80 in a volume ratio of 0.3% according to intended use. 0.02 M phosphate-buffered solution (pH 6.8±0.1) was used as an artificial intestinal juice. Dissolution was performed according to the paddle method at a stirring rate of 50 rpm and a dissolution temperature of 37±0.5° C., using 500 ml of dissolution solution. […] The collected sample was centrifuged at 15,000 rpm for 2 min and filtered using a 0.45 μm membrane filter. Quantification of aceclofenac was accomplished by using HPLC. In analyzing the dissolution rate of aceclofenac, column was C18 ODS column (4.6×150 mm, 5 μm), absorbance was a wave length of 282 nm, a mobile phase was a mixture of MeOH:0.02 M KH2PO4 (65:35), and a flow rate was 1 ml/min. 20 μl of sample was injected. Quantification of aceclofenac was accomplished with width ratio of aceclofenac and internal standard (Ethyl paraben) Dissolution rate (%) of aceclofenac contained in the solid powder preparations, prepared in example, was measured according to Experimental 5. Content of aceclofenac obtained in Experimental Example 4 was used as 100% and dissolution rate of aceclofenac contained in the solid powder preparations prepared in example was given as a percentage. Dissolution concentration (μg/ml) and dissolution rate (%) of aceclofenac contained in solid powder preparation in artificial gastric juice were measured, the results are given in Tables 1 to 3, below, […]

Dissolution concentration (15 min): 0.075 µg/mL
Dissolution rate (15 min): (0.04) %
Dissolution concentration (30 min): 0.063 µg/mL
Dissolution rate (30 min): (0.03) %
Dissolution concentration (45 min): 0.088 µg/mL
Dissolution rate (45 min): (0.05) %
Dissolution concentration (60 min): 0.090 µg/mL
Dissolution rate (60 min): (0.05) %
Dissolution concentration (90 min): 0.236 µg/mL
Dissolution rate (90 min): (0.12) %
SMILES: O=C(O)COC(=O)Cc1ccccc1Nc1c(Cl)cccc1Cl [Aceclofenac]
